This note sets out measurements from article PMC6023543, “Resistance to Permethrin, β-cyfluthrin, and Diazinon in Florida Horn Fly Populations” (Insects, 2018).

Holding throughout (test): Ellman assay, […] nm, head homogenate
Common to all, as to format: biochemical, Haematobia irritans

Assay [1] deals with T1, acetylcholinesterase (AChE), Ona field population.
T1 construct: gene Ace; native enzyme in homogenate of five pooled fly heads; mixed genotypes, G262A in a small part of the flies, other mutations not screened
The conditions noted are these: 0.4 mM acetylthiocholine, pH 7.8 phosphate, 25 °C, 10 min preincubation; covalent; stated gain.

Assay [2] addresses T2, acetylcholinesterase (AChE), Labelle field population.
T2 construct: gene Ace; native enzyme in homogenate of five pooled fly heads
The settings on record: 0.4 mM acetylthiocholine, pH 7.8 phosphate, 25 °C, 10 min preincubation; covalent.

The target of assay [3] is T3, acetylcholinesterase (AChE), Kerrville susceptible strain.
T3 construct: gene Ace; not purified; G262A absent in this strain
The conditions noted are these: 0.4 mM acetylthiocholine, pH 7.8 phosphate, 25 °C, 10 min preincubation; covalent.

Assay [4] concerns the target T4, acetylcholinesterase (AChE), BTU field population.
T4 construct: gene Ace; native enzyme in homogenate of five pooled fly heads; mixed genotypes, G262A in a small part of the flies, other mutations not screened
The settings on record: 0.4 mM acetylthiocholine, pH 7.8 phosphate, 25 °C, 10 min preincubation; covalent.

As a reminder, the IC50 is the concentration that inhibits the measured activity by half. In the case of `CCOP(=O)(OCC)Oc1cc(C)nc(C(C)C)n1` [diazoxon], the 50% inhibitory concentration (IC50) worked out at 20.5 nM in assay [1], 9.2 nM in assay [2], 8.2 nM in assay [3] and 6.1 nM in assay [4].
